Legend:
[1] = system: HT-29 human colon cancer cells; assay: Proliferation by PCNA antigen expression; type: cell-based; details: at IC50 for cell growth inhibition, 24 hrs
[2] = system: human mammary epithelial cell line (HMEpC); assay: Cell growth inhibition, normal mammary epithelial cells; type: cell-based; details: IC50 at 24h, HMEpC vs MCF-7
[3] = system: BxPC-3 human pancreatic cancer cells; assay: MTT cell growth inhibition, BxPC-3 pancreatic cancer cells; type: cell-based; details: ratio of IC50 values parent NSAID/NOSH-NSAID, 24 hr
[4] = system: HT-29 human colon cancer cells; assay: MTT cell growth inhibition, HT-29 colon cancer cells; type: cell-based; details: for Potency enhancement, Colon HT-29: ratio of IC50 values parent NSAID/NOSH-NSAID, 24 hr
[5] = system: Jurkat T human leukemia cells; assay: MTT cell growth inhibition, Jurkat T leukemia cells; type: cell-based; details: ratio of IC50 values parent NSAID/NOSH-NSAID, 24 hr
[6] = system: human cancer cell lines of colon, breast, pancreas, and leukemia; assay: MTT cell growth inhibition, panel of four cancer cell lines; type: cell-based; details: ratio of IC50 values parent/NOSH compound, 24 h
[7] = system: human primary pancreatic epithelial cells (HPDE, ACBRI 515); assay: Cell growth inhibition, normal pancreatic epithelial cells; type: cell-based; details: 24 h, read-out: IC50 for cell growth inhibition, Pancreatic Epithelial HPDE (ACBRI 515)
[8] = system: MCF-7 (estrogen receptor positive) breast cancer cells; assay: MTT cell growth inhibition, MCF-7 breast cancer cells; type: cell-based, human; details: ratio of IC50 values parent NSAID/NOSH-NSAID, 24 hr
[9] = system: HT-29 human colon cancer cells; assay: Cell cycle phases by PI staining and flow cytometry; type: cell-based; details: at IC50

Row | SMILES | Reduction of proliferation (PCNA expression) [1] | Fold more potent in breast cancer cell line (MCF-7) than in normal HMEpC cells [2] | Potency enhancement, Pancreas BxPC-3 [3] | Potency enhancement, Colon HT-29 [4] | Potency enhancement, Leukemia Jurkats [5] | Enhanced potency over parent compound, range over the cancer cell lines [6] | IC50 [7] [µM] | Potency enhancement, Breast MCF-7 [8] | Mode of cell cycle arrest [9] | Fold more potent than the combination (sum of its parts) ([4]; HT-29, intact molecule vs naproxen plus SNAP and ADT-OH)
1 | CC1=C(CC(=O)Oc2ccc(OC(=O)CCCO[N+](=O)[O-])c(C(=O)Oc3ccc(-c4cc(=S)ss4)cc3)c2)c2cc(F)ccc2/C1=C\c1ccc([S+](C)[O-])cc1 (stereo not drawn) [NOSH-SUL, (Z)-4-(3-thioxo-3H-1,2-dithiol-5-yl) phenyl 5-(2-(5-fluoro-2-methyl-1-(4-(methylsulfinyl)benzylidene)-1H-inden-3-yl)acetoxy)-2-((4-(nitrooxy)butanoyl)oxy) benzoate] | approximately 50% | about 150 fold | ~8,200 | ~9,000 | ~2,500 | 2,500-9,650 fold | > 25 | ~9,650 | G2/M block | 
2 | C[C@H](C(=O)Oc1ccc(-c2cc(=S)ss2)cc1)c1ccc2cc(OC(=O)CCCO[N+](=O)[O-])ccc2c1 [NOSH-NAP, (S)-6-(1-oxo-1-(4-(3-thioxo-3H-1,2-dithiol-5-yl)phenoxy)propan-2-yl) naphthalen-2-yl 4-(nitrooxy) butanoate] | approximately 50% | approximately 115 fold | ~16,000 | ~34,000 | ~25,000 | 16,000-34,000 fold |  | ~20,000 | G0/G1 cell cycle block | approximately 8000 fold

Source: paper PMC3835719 (MedChemComm, 2013)
